Reference: patent US12480920B2, “Method for the detection and quantification of fosfomycin, impurities and degradation products thereof” (MEITHEAL PHARMACEUTICALS, INC., priority 2019, dated 2025)

Experiment: Stability study of fosfomycin for injection drug product: analysis of impurities by HILIC-HPLC with CAD detection
Type: physicochemical
Settings: fosfomycin for injection drug product (vials, 7.92 g fosfomycin disodium + 150 mg succinic acid), 25° C. and 60% RH; for wt % of impurities at time points (months): 0: 0 months; for wt % of impurities at time points (months): 1: 1 month; for wt % of impurities at time points (months): 3: 3 months; for wt % of impurities at time points (months): 6: 6 months; for wt % of impurities at time points (months): 9: 9 months; for wt % of impurities at time points (months): 12: 12 months
Experimental: As part of a stability study of fosfomycin for injection drug product, analysis of impurities was performed according to the method of the present invention, using HILIC-HPLC method with CAD detection, as disclosed, for example, in example 2.
The sample subjected to the stability test was fosfomycin for injection drug product, namely, vials containing sterile dry powder admixture of 7.92 g of fosfomycin disodium and 150 mg of succinic acid.
The samples were kept at 25° C. and 60% RH. Analysis of impurities was performed at the following time points: 0, 1, 3, 6, 9 and 12 months. Impurities are reported at weight percentage 0.05% (limit of detection of the method). “Dtd.” in the table stands for “detected”, meaning that the impurity is detected but is under the limit of detection (0.05 wt %). ND stands for “not detected”.

| Compound | wt % of impurities at time points (months): 0 | wt % of impurities at time points (months): 1 | wt % of impurities at time points (months): 3 | wt % of impurities at time points (months): 6 | wt % of impurities at time points (months): 9 | wt % of impurities at time points (months): 12 |
| --- | --- | --- | --- | --- | --- | --- |
| CC(OP(=O)(O)C1OC1C)C(O)P(=O)(O)O (stereo not drawn) [Dimer1] | 0.05 wt % | 0.06 wt % | 0.05 wt % | 0.08 wt % | 0.06 wt % | 0.09 wt % |
| CC(OP(=O)(O)C1OC1C)C(O)P(=O)(O)O (stereo not drawn) [Dimer2] | 0.05 wt % | Dtd. (“Dtd.” in the table stands for “detected”, meaning that the impurity is detected but is under the limit of detection (0.05 wt %)) | 0.07 wt % | 0.10 wt % | 0.08 wt % | 0.11 wt % |
| CC(OP(=O)(O)C1OC1C)C(O)P(=O)(O)O (stereo not drawn) [Dimer3] | – | – | – | – | – | Dtd. (“Dtd.” in the table stands for “detected”, meaning that the impurity is detected but is under the limit of detection (0.05 wt %)) |
| CCOC(C(C)O)P(=O)(O)O (stereo not drawn) [Ethanol adduct] | – | – | Dtd. (“Dtd.” in the table stands for “detected”, meaning that the impurity is detected but is under the limit of detection (0.05 wt %)) | – | Dtd. (“Dtd.” in the table stands for “detected”, meaning that the impurity is detected but is under the limit of detection (0.05 wt %)) | Dtd. (“Dtd.” in the table stands for “detected”, meaning that the impurity is detected but is under the limit of detection (0.05 wt %)) |
| CC(O)C(O)P(=O)([O-])[O-].[Na+].[Na+] (stereo not drawn) [Impurity A, (1,2-dihydroxypropyl)phosphonate] | Dtd. (“Dtd.” in the table stands for “detected”, meaning that the impurity is detected but is under the limit of detection (0.05 wt %)) | 0.06 wt % | 0.07 wt % | 0.09 wt % | 0.11 wt % | 0.10 wt % |
| COC(C(C)O)P(=O)(O)O (stereo not drawn) [Methanol adduct] | 0.07 wt % | 0.18 wt % | 0.13 wt % | 0.35 wt % | Dtd. (“Dtd.” in the table stands for “detected”, meaning that the impurity is detected but is under the limit of detection (0.05 wt %)) | 0.12 wt % |
| C=CCP(=O)(O)O [Olefinic acid, 2-propenyl phosphonic acid] | 0.40 wt % | 0.46 wt % | 0.39 wt % | 0.42 wt % | 0.36 wt % | 0.40 wt % |
| CC(OP(=O)(OC(C)C(O)P(=O)(O)O)C1OC1C)C(O)P(=O)(O)O (stereo not drawn) [Trimer] | Dtd | 0.07 wt % | – | Dtd. (“Dtd.” in the table stands for “detected”, meaning that the impurity is detected but is under the limit of detection (0.05 wt %)) | Dtd. (“Dtd.” in the table stands for “detected”, meaning that the impurity is detected but is under the limit of detection (0.05 wt %)) | Dtd. (“Dtd.” in the table stands for “detected”, meaning that the impurity is detected but is under the limit of detection (0.05 wt %)) |
